What was measured:
Runx2 = Runx2 activity, 6xOSE2-Luc luciferase reporter in transfected C2C12 cells; type: cell-based, Mouse; conditions: Mus musculus, 24 hrs, read-out: luciferase activity relative to control set as 1
In short: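 Compound exposure of 24 h at 2.5, 5.0, 10 and 20 μM, in 5% FBS DMEM, was applied to transfected C2C12 cells with an OSE2 hexamer-driven luciferase construct reporting Runx2 activity. Read-out: dual-luciferase signal in cell lysates, normalised to equal-volume DMSO control (=1).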

mice calvarias = experiment: Mice calvarias loss inhibition, bone loss induced by interleukin-1 in vivo; conditions: IL-1 collagen sponge, 0.2 mg per mouse intraperitoneally, 7 days, vs vehicle
Experimental: Specifically, 5 to 7 ml of collagen (Cellmatrix type I-A; Wako co., Japan, Cat. No. 637-00653) was poured into petri dish (60×15 mm), and lyophlilized. The lyophlilized collagen sponge was made to the desired size which is appropriate to be implanted, and in order to induce local bone loss of mice, interleukin-1 (Peprotech; London, GB) was diluted with phosphate-buffered-saline solution to 2 μg per one mouse to be treated onto collagen sponge. The collagen sponge treated with interleukin-1 was contacted to the surface of mice carvarias through mice scalp incision, was implanted to 5 mice (5-week-male, ICR strain) in the test group and the control group, respectively, and was sutured. 7 days later, the mice were sacrificed to obtain calvarias. The test group was intraperitoneally injected with the dose of 0.2 mg of the compound obtained in Example 8 per one mouse from the next day of surgery to the day before the sacrifice. The control group was intraperitoneally injected with 100 μl of DMSO. After 7 days, the mice were sacrificed, and the extracted calvarias were washed 3-4 times with phosphate-buffered-saline solution and fixed in 4% paraformaldehyde for 24 hrs. Micro-computed tomography scan (SMX-90CT; Shimadzu, Japan) was performed for the fixed mice calvarias and 3-dimensional image thereof was obtained.
Further, bone mineral content (BMC) was measured by using TRI 3D-BON (RATOC system Engineering Co., Tokyo, Japan) based on the 3-dimensional image (see Volume Graphics, VG studio Max 1.2.1).
Histological studies were conducted in order to investigate the number of osteoclastic cells directly relating to bone loss. Specifically, the calvarias were decalcificated (solution was replaced every 2-3 days) with 12% EDTA (pH 7.2-7.4) for 14 days and embedded in paraffin. TRAP staining (Sigma-Aldrich) was performed on the embedded whole calvarias.
In addition, the whole area of osteoclast which is red-stained, that is, TRAP-positive was shown in graph by using image J program.
The procedure of the Experimental Example 3 was repeated except for using the compound obtained in Example 94 instead of the compound obtained in Example 8, to examine the effect on mice calvarias loss inhibition.
Histological studies were conducted in order to investigate the number of osteoclastic cells directly relating to bone loss. Specifically, the calvarias were decalcificated (solution was replaced every 2-3 days) with 12% EDTA (pH 7.2-7.4) for 14 days and embedded in paraffin.
H-E (Hematotoxin-eosin) and TRAP staining (Sigma-Aldrich) were performed on the embedded whole calvarias. The results are given in FIGS. 4b and 4c, respectively. In addition, the whole area of osteoclast of the test and control group was shown in graph by using image J program.

rats calvarias = experiment: Bone formation in rats calvarias loss site in vivo; conditions: 8 mm calvarias hole, vs control
Experimental: To investigate the effect of the amide compound according to the present invention on bone formation, bone formation ability of the said compound in the rats calvarias loss site was examined in vivo by using the compounds obtained in Example 8 and 27.
Specifically, the hole of the diameter of 8 mm was made in calavarias of rats by using trephine bur, and the collagen sponge prepared in Experimental Example 3 treated with 0.2 mg of the compound obtained in Example 8 in 15 μl of DMSO was placed at the site of loss. As a control group, the collagen sponge treated with only 100 μl of DMSO was treated at the site of loss. After 6 days from the suture of the calvarias scalp, the rats were sacrificed to obtain calvarias. Micro-computed tomography scan (SMX-90CT; Shimadzu, Japan) was performed and 3-dimensional image thereof was obtained.
Further, bone mineral content (BMC) of the test and control group was measured by using TRI 3D-BON (RATOC system Engineering Co., Tokyo, JP) based on the 3-dimensional image (see, Volume Graphics, VG studio Max 1.2.1). […]
Further, bone mineral content (BMC) of the test and control group was measured by using TRI 3D-BON (RATOC system Engineering Co., Tokyo, JP) based on the 3-dimensional image.

SMILES	fold induction at 2.5 µM (Runx2)	fold induction at 5 µM (Runx2)	fold induction at 10 µM (Runx2)	fold induction at 20 µM (Runx2)	bone loss in calvarias (micro-computed tomography) (mice calvarias)	osteoclast (TRAP-positive area) (mice calvarias)	whole bone mineral content (BMC) (mice calvarias)	BMC (bone content) (rats calvarias; collagen sponge with 0.2 mg compound)	BMC (bone content) (rats calvarias; collagen sponge with 0.2 mg or 0.5 mg compound)
COc1cc2c(c(-c3cncnc3)c1OC)CN(Cc1ccc(C(=O)Nc3ccccc3N)cc1)C2=O [Example 8, N-(2-aminophenyl)-4-((5,6-dimethoxy-1-oxo-4-(pyrimidin-5-yl)isoindolin-2-yl)methyl)benzamide]	28.5	33.4	36	30.1	suppressed	remarkably reduced	increased	unexpectedly increased	
Cc1cc(C(=O)NCCCCCC(=O)NO)ccc1-c1ccccc1 [Example 94, N-(5-(hydroxycarbamoyl)pentyl)-3-methyl-4-phenylbenzamide]	1.6	3.4	7.5	10.7	suppressed	remarkably reduced			unexpectedly increased
COc1cc(C(=O)NCc2ccc(C(=O)Nc3ccccc3N)cc2)c(C)c(-c2ccccc2)c1OC [Example 74, N-(2-aminophenyl)-4-((2-methyl-3-phenyl-4,5-dimethoxy-benzamido)methyl)benzamide]	25.1	31.1	38.5	38.9					
N#Cc1ccc(-c2cccc3c2CN(Cc2ccc(C(=O)Nc4ccccc4N)cc2)C3=O)cc1 [Example 20, N-(2-aminophenyl)-4-[4-(4-cyanophenyl)-1-oxo-2,3-dihydro-1H-isoindol-2-yl]methylbenzamide]	16.2	19.4	19.3	16.8					
COc1ccc(-c2cccc(C(=O)NCCCCCC(=O)Nc3ccccc3N)c2C)c(OC)c1 [Example 82, N-(5-(2-aminophenylcarbamoyl)pentyl)-2-methyl-3-(2,4-dimethoxyphenyl)-benzamide]	1.5	2.5	6	10.9					
COc1cc(C(=O)NCc2ccc(C(=O)Nc3ccccc3N)cc2)c(C)c(-c2cncnc2)c1OC [Example 75, N-(2-aminophenyl)-4-((2-methyl-4,5-dimethoxy-3-(5-pyrimidinyl)-benzamido)methyl)benzamide]	2.5	4.7	12.4	27.8					
COc1ccc(-c2ccc3c(c2)CN(Cc2ccc(C(=O)Nc4ccccc4N)cc2)C3=O)cc1OC [Example 64, N-(2-aminophenyl)-4-((5-(3,4-dimethoxyphenyl)-1-oxoisoindolin-2-yl)methyl)benzamide]	11.3	10.7	10.1	9.5					
Cc1c(C(=O)NCCCCCC(=O)Nc2ccccc2N)cccc1-c1cccnc1 [Example 83, N-(5-(2-aminophenylcarbamoyl)pentyl)-2-methyl-3-(3-pyridinyl)-benzamide]	1.3	2.1	5.6	15.7					
CC(=O)Nc1cccc(-c2cccc3c2CN(Cc2ccc(C(=O)Nc4ccccc4N)cc2)C3=O)c1 [Example 23, N-(2-aminophenyl)-4-[4-(3-acetamidophenyl)-1-oxo-2,3-dihydro-1H-isoindol-2-yl]methylbenzamide]	3.9	5.1	18.1	33.2					
COc1ccc(-c2cccc3c2CN(Cc2ccc(C(=O)Nc4ccccc4N)cc2)C3=O)cn1 [Example 22, N-(2-aminophenyl)-4-((4-(6-methoxypyridin-3-yl)-1-oxoisoindolin-2-yl)methyl)benzamide]	12.4	9.5	10.2	10.3					
O=C(CCCCCN1Cc2c(cccc2-c2ccc(C(F)(F)F)cc2)C1=O)NO [Example 44, 6-(4-(4-(trifluoromethyl)phenyl)-1-oxoisoindolin-2-yl)-N-hydroxyhexanamide]	1.2	1.2	1.3	1.4					
N#Cc1ccc(-c2ccc3c(c2)CN(Cc2ccc(C(=O)Nc4ccccc4N)cc2)C3=O)cc1 [Example 65, N-(2-aminophenyl)-4-[5-(4-cyanophenyl)-1-oxo-2,3-dihydro-1H-isoindol-2-yl]methylbenzamide]	12.9	15.7	13.5	11.4					
COc1ccc(-c2ccc(C(=O)NCCCCCC(=O)Nc3ccccc3N)cc2C)c(OC)c1 [Example 87, N-(5-(2-aminophenylcarbamoyl)pentyl)-3-methyl-4-(2,4-dimethoxyphenyl)-benzamide]	1.7	2.6	5.6	8.5					
COc1ccc(-c2ccc3c(c2)CN(CCCCCC(=O)NO)C3=O)c(OC)c1 [Example 50, N-hydroxy-6-(5-(2,4-dimethoxyphenyl)-1-oxoisoindolin-2-yl)hexanamide]	1.9	5	22.1	42.7					
Nc1ccccc1NC(=O)c1ccc(CN2Cc3c(cccc3-c3cc(F)cc(F)c3)C2=O)cc1 [Example 17, N-(2-aminophenyl)-4-((4-(3,5-difluorophenyl)-1-oxoisoindolin-2-yl)methyl)benzamide]	11.2	14.7	16.3	15.8					
Nc1ccccc1NC(=O)c1ccc(CN2Cc3c(cccc3-c3ccc(Oc4ccccc4)cc3)C2=O)cc1 [Example 29, N-(2-aminophenyl)-4-((1-oxo-4-(4-phenoxyphenyl)isoindolin-2-yl)methyl)benzamide]	3.4	5.6	10.5	10					

Source: US8716326B2, “Isoindolinone derivatives, preparation method thereof and a pharmaceutical composition comprising same” (Korea Research Institute of Chemical Technology, priority 2009, dated 2014)
